According to patent publication US8772304B2, “Benzimidazole inhibitors of leukotriene production” (Boehringer Ingelheim International GmbH, priority 2010, dated 2014):

How the values were obtained:
[1] = biological target: recombinant human FLAP protein (Homo sapiens (Human), UniProt P20292); test: FLAP binding assay (Scintillation Proximity Assay, displacement of iodinated FLAP inhibitor); settings: displacement of [125I]L-691,831; membranes of sf9 cells expressing recombinant human FLAP; read-out: hFLAP binding IC50
recombinant human FLAP protein, sequence (P20292 whole entry): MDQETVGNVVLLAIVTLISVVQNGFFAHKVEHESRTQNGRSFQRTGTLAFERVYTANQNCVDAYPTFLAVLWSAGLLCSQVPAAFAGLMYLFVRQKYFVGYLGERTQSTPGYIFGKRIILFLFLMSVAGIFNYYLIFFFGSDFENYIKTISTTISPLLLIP
Protocol: Compounds are assessed for the ability to bind to FLAP in a binding assay that measures compound-specific displacement of an iodinated (^125I) FLAP inhibitor via a Scintillation Proximity Assay format (adapted from S. Charleson et al., Mol. Pharmacol., 1992, 41, 873-879).
Cell pellets produced from sf9 insect cells expressing recombinant human FLAP protein are resuspended in buffer A [15 mM Tris-HCl (pH 7.5), 2 mM MgCl2, 0.3 mM EDTA, 1 mM PMSF]. The cells are lysed with a Dounce homogenizer and the material is centrifuged at 10,000×g for 10 minutes. The supernatant is then collected and centrifuged at 100,000×g for 60 minutes. To prepare membrane protein for an assay, an aliquot of the 100,000×g pellet is resuspended in 1 ml of buffer A, Dounce homogenized, and finally subjected to polytron mixing (30 seconds). Membrane protein (25 μl, 5 μg) is mixed with WGA SPA beads (Amersham) and stirred for 1 h. […] (final concentrations: beads, 200 μg/well; protein, 5 μg/well; [^125I] probe, 0 08 nM/well (17 nCi/well). The plates are shaken for 2 h before reading on a Microbeta plate reader. Non-specific binding is determined by the addition of 10 μM cold L-691,831 compound.

[2] = system: synthesis of LTB4 in human whole blood; test: human whole blood LTB4 production inhibition assay; type: cell-based; settings: heparinized human whole blood, calcimycin 20 μM stimulation, plasma LTB4; read-out: hWB IC50
Protocol: Compounds are additionally tested in a human whole blood assay to determine their ability to inhibit the synthesis of LTB4 in a cellular system. Compounds are combined with heparinized human whole blood and incubated for 15 minutes at 37° C. Calcimycin (20 μM final, prepared in phosphate-buffered saline, pH 7.4) is then added and the mixture is incubated for another 30 minutes at 37° C. The samples are centrifuged for 5 min at low speed (1500×g) and the plasma layer is removed. Plasma LTB4 concentrations are then measured using an antibody-based homogenous time-resolved fluorescence method (CisBio, Bedford, Mass.).

CC(C)(C)n1c(-c2cccc(F)n2)nc2cc(-c3cnc(NCc4cccc(F)n4)nc3)ccc21 [Example 15, {5-[1-tert-Butyl-2-(6-fluoro-pyridin-2-yl)-1H-benzimidazol-5-yl]-pyrimidin-2-yl}-(6-fluoro-pyridin-2-ylmethyl)-amine] gave an IC50 [1] of 870 nM.

Work on COc1cccc(-c2nc3cc(-c4cnc(N)nc4)ccc3n2C(C)(C)C)n1 [Example 11, 5-[1-tert-Butyl-2-(6-methoxy-pyridin-2-yl)-1H-benzimidazol-5-yl]-pyrimidin-2-ylamine] yielded an IC50 [1] of 46 nM.

In the case of COc1cc(-c2nc3cc(-c4cnc(N)nc4)ccc3n2C(C)(C)C)c(F)cn1 [Example 17, 5-[1-tert-Butyl-2-(5-fluoro-2-methoxy-pyridin-4-yl)-1H-benzimidazol-5-yl]-pyrimidin-2-ylamine], the IC50 [1] is reported as 58 nM and the IC50 [2] is reported as 58 nM.

Compound CNC(=O)c1ccc(C#N)nc1-c1nc2cc(-c3cnc(N)nc3)ccc2n1C(C)(C)C [Example 10, 2-[5-(2-Amino-pyrimidin-5-yl)-1-tert-butyl-1H-benzimidazol-2-yl]-6-cyano-N-methyl-nicotinamide] has an IC50 [1] of 138 nM and an IC50 [2] of 422 nM.

For CC(C)(C)n1c(-c2cc(Cl)cnc2-n2cncn2)nc2cc(-c3cnc(N)nc3)ccc21 [Example 22, 5-[1-tert-Butyl-2-(5-chloro-2-1,2,4-triazol-1-yl-pyridin-3-yl)-1H-benzimidazol-5-yl]-pyrimidin-2-ylamine], the IC50 [1] was 3.2 nM and the IC50 [2] was 116 nM.

Cc1ccc(-c2nc3cc(-c4cnc(N)nc4)ccc3n2C(C)(C)C)c(-n2cncn2)n1 [Example 28, 5-[1-tert-Butyl-2-(6-methyl-2-1,2,4-triazol-1-yl-pyridin-3-yl)-1H-benzimidazol-5-yl]-pyrimidin-2-ylamine] was tested, and the IC50 [1] was 17 nM and the IC50 [2] was 194 nM.

CCOc1ncccc1-c1nc2cc(-c3cnc(N)nc3)ccc2n1C(C)(C)C [Example 33, 5-[1-tert-Butyl-2-(2-ethoxy-pyridin-3-yl)-1H-benzimidazol-5-yl]-pyrimidin-2-ylamine] showed an IC50 [1] of 34 nM.

In the case of Cc1ncnn1-c1ccc(C#N)nc1-c1nc2cc(-c3cnc(N)nc3)ccc2n1C(C)(C)C [Example 3, 6-[5-(2-Amino-pyrimidin-5-yl)-1-tert-butyl-1H-benzimidazol-2-yl]-5-(5-methyl-1,2,4-triazol-1-yl)-pyridine-2-carbonitrile], the IC50 [1] is reported as 5.9 nM and the IC50 [2] is reported as 89 nM.

CC(C)(C)n1c(-c2cccnc2-n2cncn2)nc2cc(-c3cnc(N)nc3)ccc21 [Example 20, 5-[1-tert-Butyl-2-(2-1,2,4-triazol-1-yl-pyridin-3-yl)-1H-benzimidazol-5-yl]-pyrimidin-2-ylamine] was tested, and the IC50 [1] was 19 nM and the IC50 [2] was 447 nM.

CC(C)(C)n1c(-c2ccccn2)nc2cc(-c3cnc(N)nc3)ccc21 [Example 12, 5-(1-tert-Butyl-2-pyridin-2-yl-1H-benzimidazol-5-yl)-pyrimidin-2-ylamine] showed an IC50 [1] of 700 nM.

Compound COc1ncccc1-c1nc2cc(-c3cnc(N)nc3)ccc2n1C(C)(C)C [Example 32, 5-[1-tert-Butyl-2-(2-methoxy-pyridin-3-yl)-1H-benzimidazol-5-yl]-pyrimidin-2-ylamine] has an IC50 [1] of 220 nM.

In the case of CNC(=O)c1cccnc1-c1nc2cc(-c3cnc(N)nc3)ccc2n1C(C)(C)C [Example 8, 2-[5-(2-Amino-pyrimidin-5-yl)-1-tert-butyl-1H-benzimidazol-2-yl]-N-methyl-nicotinamide], the IC50 [1] is reported as 620 nM and the IC50 [2] is reported as 1700 nM.

In the case of CC(C)(C)n1c(-c2nc(C#N)ccc2-n2cncn2)nc2cc(-c3cnc(N)nc3)ccc21 [Example 1, 6-[5-(2-Amino-pyrimidin-5-yl)-1-tert-butyl-1H-benzimidazol-2-yl]-5-1,2,4-triazol-1-yl-pyridine-2-carbonitrile], the IC50 [1] is reported as 7.1 nM and the IC50 [2] is reported as 30 nM.

COc1cccnc1-c1nc2cc(-c3cnc(N)nc3)ccc2n1C(C)(C)C [Example 16, 5-[1-tert-Butyl-2-(3-methoxy-pyridin-2-yl)-1H-benzimidazol-5-yl]-pyrimidin-2-ylamine] showed an IC50 [1] of 960 nM.

In the case of CC(C)(C)n1c(-c2ccc(N3CCOCC3)nc2)nc2cc(-c3cnc(N)nc3)ccc21 [Example 30, 5-[1-tert-Butyl-2-(6-morpholin-4-yl-pyridin-3-yl)-1H-benzimidazol-5-yl]-pyrimidin-2-ylamine], the IC50 [1] is reported as 180 nM.

For CC(C)(C)Oc1cccc(-c2nc3cc(-c4cnc(N)nc4)ccc3n2C(C)(C)C)n1 [Example 13, 5-[2-(6-tert-Butoxy-pyridin-2-yl)-1-tert-butyl-1H-benzimidazol-5-yl]-pyrimidin-2-ylamine], the IC50 [1] was 51 nM.

With CC(C)(C)n1c(-c2nc(C3CC3)ccc2-n2cncn2)nc2cc(-c3cnc(N)nc3)ccc21 [Example 4, 5-[1-tert-Butyl-2-(6-cyclopropyl-3-1,2,4-triazol-1-yl-pyridin-2-yl)-1H-benzimidazol-5-yl]-pyrimidin-2-ylamine] the IC50 [1] was 13 nM and the IC50 [2] was 140 nM.

Cc1ncn(-c2ccc(C#N)nc2-c2nc3cc(-c4cnc(N)nc4)ccc3n2C(C)(C)C)n1 [Example 2, 6-[5-(2-Amino-pyrimidin-5-yl)-1-tert-butyl-1H-benzimidazol-2-yl]-5-(3-methyl-1,2,4-triazol-1-yl)-pyridine-2-carbonitrile] was tested, and the IC50 [1] was 4.2 nM and the IC50 [2] was 36 nM.

CC(C)(C)n1c(-c2ccncc2)nc2cc(-c3cnc(N)nc3)ccc21 [Example 18, 5-(1-tert-Butyl-2-pyridin-4-yl-1H-benzimidazol-5-yl)-pyrimidin-2-ylamine] was tested, and the IC50 [1] was 450 nM and the IC50 [2] was 449 nM.

With CCC(C)(C)n1c(-c2cc(Br)cnc2-n2cncn2)nc2cc(-c3cnc(N)nc3)ccc21 [Example 27, 5-[2-(5-Bromo-2-1,2,4-triazol-1-yl-pyridin-3-yl)-1-(1,1-dimethyl-propyl)-1H-benzimidazol-5-yl]-pyrimidin-2-ylamine] the IC50 [1] was 23 nM and the IC50 [2] was 667 nM.

In the case of COC(=O)c1ccc(C#N)nc1-c1nc2cc(-c3cnc(N)nc3)ccc2n1C(C)(C)C [Example 9, 2-[5-(2-Amino-pyrimidin-5-yl)-1-tert-butyl-1H-benzimidazol-2-yl]-6-cyano-nicotinic acid methyl ester], the IC50 [1] is reported as 110 nM and the IC50 [2] is reported as 387 nM.

Work on CC(C)(C)n1c(-c2cccc(F)n2)nc2cc(-c3cnc(N)nc3)ccc21 [Example 14, 5-[1-tert-Butyl-2-(6-fluoro-pyridin-2-yl)-1H-benzimidazol-5-yl]-pyrimidin-2-ylamine] yielded an IC50 [1] of 279 nM.

Compound CC(C)(C)n1c(-c2cccnc2)nc2cc(-c3cnc(N)nc3)ccc21 [Example 31, 5-(1-tert-Butyl-2-pyridin-3-yl-1H-benzimidazol-5-yl)-pyrimidin-2-ylamine] has an IC50 [1] of 542 nM.

Compound Cc1ncn(-c2ccc(C#N)nc2-c2nc3cc(-c4cnc(N)nc4)ccc3n2C2(C)CCC2)n1 [Example 5, 6-[5-(2-Amino-pyrimidin-5-yl)-1-(1-methyl-cyclobutyl)-1H-benzimidazol-2-yl]-5-(3-methyl-1,2,4-triazol-1-yl)-pyridine-2-carbonitrile] has an IC50 [1] of 29 nM and an IC50 [2] of 256 nM.

Cc1ncnn1-c1ncccc1-c1nc2cc(-c3cnc(N)nc3)ccc2n1C(C)(C)C [Example 24, 5-{1-tert-Butyl-2-[2-(5-methyl-1,2,4-triazol-1-yl)-pyridin-3-yl]-1H-benzimidazol-5-yl}-pyrimidin-2-ylamine] gave an IC50 [1] of 23 nM and an IC50 [2] of 242 nM.

With COc1cncc(-c2nc3cc(-c4cnc(N)nc4)ccc3n2C(C)(C)C)c1 [Example 29, 5-[1-tert-Butyl-2-(5-methoxy-pyridin-3-yl)-1H-benzimidazol-5-yl]-pyrimidin-2-ylamine] the IC50 [1] was 300 nM.
